Results reported in patent publication US5789434A, “Derivatives of substituted 4-biarylbutyric acid as matrix metalloprotease inhibitors” (priority 1995, dated 1998).

What was measured:
Assay type in all cases: biochemical
[1] = target: T1, MMP-3 (Homo sapiens, UniProt P08254); experiment: Automated MMP Profiling Assay, MMP-3 fluorogenic; conditions: for IC50: 96-well automated, P218
T1 construct: Truncated Prostromelysin-257 was expressed in a soluble form in E.coli; made in house; host or cells: E. coli
Description: This assay with each invention compound was run with the three enzymes MMP-3, MMP-9 and MMP-2 in parallel as adapted for a 96-well microtitre plate using a Hamilton A® workstation.

[2] = target: T2, MMP-9 (Homo sapiens, UniProt P14780); experiment: Automated MMP Profiling Assay, MMP-9 fluorogenic; conditions: for IC50: 96-well automated, P218
T2 construct: from tissue; host or cells: human polymorphonuclear leukocytes (PMN) from whole blood (New York Blood Center), PMA-stimulated supernatant

[3] = target: T3, MMP-2 (Homo sapiens, UniProt P08253); experiment: Automated MMP Profiling Assay, MMP-2 fluorogenic; conditions: for IC50: 96-well automated, P218, read-out: MMP-2 Fluorogenic IC50 (profiling)
T3 sequence (P08253 110-660): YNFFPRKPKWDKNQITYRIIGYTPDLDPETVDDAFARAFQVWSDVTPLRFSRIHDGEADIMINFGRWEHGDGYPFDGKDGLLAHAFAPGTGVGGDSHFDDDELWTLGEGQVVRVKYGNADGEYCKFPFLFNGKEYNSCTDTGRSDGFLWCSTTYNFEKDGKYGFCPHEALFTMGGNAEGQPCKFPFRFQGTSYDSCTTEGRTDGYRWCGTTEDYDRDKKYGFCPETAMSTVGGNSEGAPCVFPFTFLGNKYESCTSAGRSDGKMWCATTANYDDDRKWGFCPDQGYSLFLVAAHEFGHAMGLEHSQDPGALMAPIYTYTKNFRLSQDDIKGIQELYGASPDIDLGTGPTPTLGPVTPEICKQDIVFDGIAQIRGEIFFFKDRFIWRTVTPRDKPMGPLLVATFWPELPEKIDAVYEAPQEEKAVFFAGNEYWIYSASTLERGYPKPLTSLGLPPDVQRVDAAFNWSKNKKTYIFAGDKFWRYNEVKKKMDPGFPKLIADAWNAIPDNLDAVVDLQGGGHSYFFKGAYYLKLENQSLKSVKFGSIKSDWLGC

T1 sequence (P08254 100-274 limits assumed): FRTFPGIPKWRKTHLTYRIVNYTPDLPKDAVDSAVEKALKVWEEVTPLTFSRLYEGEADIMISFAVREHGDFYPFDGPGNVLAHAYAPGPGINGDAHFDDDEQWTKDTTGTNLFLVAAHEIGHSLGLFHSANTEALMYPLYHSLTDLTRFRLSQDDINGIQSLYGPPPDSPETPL
T2 sequence (P14780 107-707 limits assumed): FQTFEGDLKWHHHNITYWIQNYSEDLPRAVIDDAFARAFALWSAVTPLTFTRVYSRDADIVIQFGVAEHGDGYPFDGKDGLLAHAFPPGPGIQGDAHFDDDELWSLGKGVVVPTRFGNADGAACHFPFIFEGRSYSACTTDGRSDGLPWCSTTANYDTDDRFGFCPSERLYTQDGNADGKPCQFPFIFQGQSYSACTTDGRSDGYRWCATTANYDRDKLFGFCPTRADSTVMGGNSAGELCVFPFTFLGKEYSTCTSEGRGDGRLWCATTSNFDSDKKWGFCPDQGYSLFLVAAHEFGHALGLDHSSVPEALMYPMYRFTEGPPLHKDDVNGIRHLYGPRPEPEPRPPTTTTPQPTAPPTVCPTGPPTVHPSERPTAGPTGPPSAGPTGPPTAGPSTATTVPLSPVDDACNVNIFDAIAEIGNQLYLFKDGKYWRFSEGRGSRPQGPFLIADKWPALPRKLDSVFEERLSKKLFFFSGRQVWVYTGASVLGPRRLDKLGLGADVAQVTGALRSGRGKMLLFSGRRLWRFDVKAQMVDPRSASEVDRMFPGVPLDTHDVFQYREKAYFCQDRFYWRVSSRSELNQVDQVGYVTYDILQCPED

SMILES	IC50 [1]	IC50 [2]	IC50 [3]	inhibition at 5 µM [1]	inhibition at 5 µM [2]	inhibition at 5 µM ([3]; at 5 μM)
CCN(CC)C(=O)c1cccc(SCC(CC(=O)c2ccc(-c3ccc(Cl)cc3)cc2)C(=O)O)c1 (stereo not drawn) [Example 435, [1,1'-Biphenyl]-4-butanoic acid, 4'-chloro-α-[[[3-[(diethylamino)carbonyl]phenyl]thio]methyl]-γ-oxo-]	39 nM	107 nM	8.1 nM			
O=C(O)[C@H]1[C@H](C(=O)c2ccc(-c3ccc(Cl)cc3)cc2)[C@H]2C=C[C@@H]1C2 (relative stereo) [Example 176, Bicyclo[2.2.1]hept-5-ene-2-carboxylic acid, 3-[(4'-chloro[1,1'-biphenyl]-4-yl)carbonyl]-, (2-endo-,3-exo)-]			2000 nM	26%	24%	
CC(=O)OC[C@@H]1C[C@@H](C(=O)c2ccc(-c3ccc(Cl)cc3)cc2)[C@H]1C(=O)O (relative stereo) [Example 397, Cyclobutanecarboxylic acid, 2-[(acetyloxy)methyl]-4-[(4'-chloro[1,1'-biphenyl]-4-yl)carbonyl]-, (1α,2β,4α)-]	3200 nM		750 nM		40%	
CCCCCOc1ccc(-c2ccc(C(=O)CC(CCc3ccccc3)C(=O)O)cc2)cc1 (stereo not drawn) [Example 158, [1,1'-Biphenyl]-4-butanoic acid, γ-oxo-4'-(pentyloxy)-α-(2-phenylethyl)-]	37 nM	> 500 nM	32 nM			
CC(=O)Nc1ccc(-c2ccc(C(=O)CC(CCc3ccccc3)C(=O)O)cc2)cc1 (stereo not drawn) [Example 139, [1,1'-Biphenyl]-4-butanoic acid, 4'-(acetylamino)-γ-oxo-α-(2-phenylethyl)-]	5000 nM	5000 nM	323 nM			
CCCCCCCCCCOc1ccc(-c2ccc(C(=O)CC(CCCc3ccccc3)C(=O)O)cc2)cc1 (stereo not drawn) [Example 108, [1,1'-Biphenyl]-4-butanoic acid, 4'-(decyloxy)γ-oxo-α-(3-phenylpropyl)-]				8%	4%	16%
O=C(c1ccc(-c2ccc(Cl)cc2)cc1)[C@H]1CCN(C(=O)Nc2ccccc2)[C@@H]1C(=O)O [Example 173, L-Proline, 3-[(4'-chloro[1,1'-biphenyl]-4-yl)carbonyl]-1-[(phenylamino)carbonyl]-, trans-]	119 nM	814 nM	104 nM			
C#Cc1ccc(-c2ccc(C(=O)CC(CCCc3ccccc3)C(=O)O)cc2)cc1 (stereo not drawn) [Example 351, [1,1'-Biphenyl]-4-butanoic acid, 4'-ethynyl-γ-oxo-α-(3-phenylpropyl)-]	107 nM	151 nM	50 nM			
O=C(O)[C@H]1[C@H](CN2C(=O)c3cc4ccccc4cc3C2=O)CC[C@@H]1C(=O)c1ccc(-c2ccc(Cl)cc2)cc1 (relative stereo) [Example 387, Cyclopentanecarboxylic acid, 2-[(4'-chloro[1,1'-biphenyl]-4-yl)carbonyl]-5-[(1,3-dihydro-1,3-dioxo-2H-benz[.function.]isoindol-2-yl)methyl]-, (1α,2β,5β)-]	9.4 nM	2 nM	4.9 nM			
O=C(OC[C@@H]1CC[C@H](C(=O)c2ccc(-c3ccc(Cl)cc3)cc2)[C@H]1C(=O)O)c1ccccc1 (relative stereo) [Example 367]	44 nM	38 nM	37 nM			
Cc1ccc(/C=C/[C@@H]2CC[C@H](C(=O)c3ccc(-c4ccc(Cl)cc4)cc3)[C@H]2C(=O)O)cc1 (relative stereo) [Example 363, Cyclopentanecarboxylic acid, 2-[(4'-chloro[1,1'-biphenyl]-4-yl)carbonyl]-5-[2-(4-methylphenyl)ethenyl]-, [1α,2β,5β(E)]-]	5000 nM		< 5000 nM		37%	
CCCCCSc1ccc(-c2ccc(C(=O)CC(CCCc3ccccc3)C(=O)O)cc2)cc1 (stereo not drawn) [Example 72, [1,1'-Biphenyl]-4-butanoic acid, γ-oxo-4'-(pentylthio)-α-(3-phenylpropyl)-]	409 nM		90 nM		22%	
